In patent publication US10344071B2, “Identification of novel anti-fibrotic peptide in C-terminal region of the MET receptor tyrosine kinase” (MUSC Foundation for Research Development, priority 2015, dated 2019):

How the values were obtained:
Format in all cases: cell-based, human
[1] = system: alveolar epithelial cells (AEC, A549); assay: Caspase 3 Assay, FasL- and cisplatin-induced apoptosis; settings: for apoptosis, level of active caspase 3: AEC incubated 24 h with the inducer; for FasL-induced apoptosis (caspase 3 activity) / cisplatin-induced apoptosis (caspase 3 activity): AEC, 24 hours, peptide treatment, p<0.01
Method: FIG. 7 depicts alveolar epithelial cells (AEC) transfected with MET WT but not with MET D1398G are protected from FasL- and cisplatin-induced apoptosis. Transfected AEC were incubated with or without FasL or cisplatin for 24 hours, collected with lysis buffer and analyzed by Caspase 3 Assay as detailed in Materials and Methods.
(§1) FIG. 17A depicts 1403 and 1404 peptides inhibit collagen in TGFβ-stimulated LF. Cells were incubated with and without TGFβ (5 ng/ml), 1403, and 1404 peptides (1 μg/ml) or scrambled peptide (Control, Co) for 24 h and analyzed by immunoblotting using anti-collagen type I antibody. FIG. 17B depicts 1403 and 1404 but not M10 protect AEC from FasL- and cisplatin-induced apoptosis. AEC were incubated with or without 1403, 1404, or scrambled (Control) peptides, FasL, and cisplatin for 24 hours and analyzed by Caspase 3 Assay from Abcam.
Caspase 3 Assay Kit (Abcam, Cambridge, Mass.) was used to detect apoptosis in cultured cells. The cells were plated on 100 mm plates, transfected with MET WT or D1398G, and treated with or without FasL and cisplatin for 24 h. Cell lysates were collected in accordance to with the manufacturer's instructions, transferred to a 96-well plate, and incubated with DEVD-p-NA substrate at 37° C. for 2 hours followed by reading the absorbance at 405 nm on a spectrophotometer.
A cell-protective effect of HGF and MET have been reported in AEC in numerous studies (Crestani, et al., Proc Am Thorac Soc, 2012, 9(3):158-63 and Gazdhar, et al., Hum Gene Ther, 2013, 24(1):105-16). To investigate if the D1398G mutation interferes with anti-apoptotic effects of MET in AEC, apoptosis of AEC with FasL and cisplatin and measured caspase 3 activity in cell lysates was induced. […] In contrast, AEC transfected with the MET D1398G mutant were not protected from FasL- and cisplatin-induced apoptosis.
To investigate if the 1403 and 1404 peptides have anti-apoptotic effects in AEC, apoptosis of AEC was induced with FasL and cisplatin and measured caspase 3 activity in cell lysates. […] In contrast, AEC treated with scrambled peptide were not protected from FasL- and cisplatin-induced apoptosis (FIG. 17B).

[2] = system: caspase-3; assay: Cisplatin-induced cleaved caspase-3, Western blot; settings: for cleaved or active caspase-3 by Western blot: 50 μM for 24 h
Method: FIG. 5, comprising FIG. 5A and FIG. 5B, depicts effects of cisplatin in lung fibroblasts (LF) and alveolar epithelial cells (AEC) transfected with MET WT and MET D1398G. FIG. 5A depicts transfected cells were incubated with or without cisplatin for 24 hours. The cells were collected with lysis buffer and analyzed by Western blot with indicated antibodies. FIG. 5B depicts densitometric analysis of uncleaved MET detected by C12 antibody. Values are the mean and SD from three independent experiments.

[3] = system: fetal lung fibroblasts (MRC5 immortal cell line); assay: TGFβ-induced collagen type I, immunoblot; settings: peptide 1 μg/ml, TGFβ 5 ng/ml, 24 h
Method: FIG. 11, comprising FIG. 11A and FIG. 11B, depicts the effect of M10 on TGFβ-induced collagen type 1. FIG. 11A depicts MRC5 cells, normal lung fibroblasts, and normal skin fibroblasts were incubated with or without M10, scrambled peptide (Scr), and TGFβ for 48 hours in serum-free medium. Cell extracts were immunoblotted with anticollagen type I and anti-β-actin antibodies. FIG. 11B depicts densitometric analysis of collagen type I immunoblots from 2 independent experiments.
as §1, with “FIG. 17B depicts 1403 and 1404 but not M10 protect AEC from FasL- and cisplatin-induced apoptosis.” left out
Cells were collected and analyzed by immunoblotting as previously described (Bogatkevich et al., J Biol Chem. 2001, 276:45184-45192; Bogatkevich et al., Arthritis Rheum. 2007, 56:3468-3477). The phosphorylation of Smad2 was analyzed by Western blot using anti-phospho-Smad2 antibody in accordance with the manufacturer's instructions (Cell Signaling Technology). […] Total amount of Smad2 was evaluated by re-blotting with anti-Smad2 polyclonal antibody. […]

Molecule	apoptosis, level of active caspase 3 [1]	cleaved caspase by Western blot ([2]; AEC and LF, 100 μM)	cleaved or active caspase-3 by Western blot ([2]; AEC)	cleaved or active caspase-3 by Western blot ([2]; LF)	levels of TGFβ-induced collagen [3]	FasL-induced apoptosis (caspase 3 activity) [1]	cisplatin-induced apoptosis (caspase 3 activity) [1]
N.N.[Cl][Pt][Cl] [cisplatin]	resulted in apoptosis reflected by an increase in the level of active caspase 3	yielded cleaved caspase not only in AEC but also in LF	detectable	not in LF	–	–	–
DDEVDTRPAS (1403 Peptide) [compound 1403, M5 peptide with added caspase-3 cleavage sites and an additional N-terminal aspartic acid]	–	–	–	–	significantly reduced	significantly reduced apoptosis	significantly reduced apoptosis
DEVDTRPAS (1404 Peptide) [compound 1404, M5 peptide with added caspase-3 cleavage sites]	–	–	–	–	significantly reduced	significantly reduced apoptosis	significantly reduced apoptosis
FasL: inducer of apoptosis in AEC (protein, UniProt P48023 130-281, looked up) Tumor necrosis factor ligand …: QIGHPSPPPEKKELRKVAHLTGKSNSRSMPLEWEDTYGIVLLSGVKYKKGGLVINETGLYFVYSKVYFRGQSCNNLPLSHKVYMRNSKYPQDLVMMEGKMMSYCTTGQMWARSSYLGAVFNLTSADHLYVNVSELSLVNFEESQTFFGLYKL	resulted in apoptosis reflected by an increase in the level of active caspase 3	–	–	–	–	–	–
